“And” between values parts separate entries of the source, which are not always exact repeats. Equal entries are not always repeated.

T1 sequence (P09483 31-630): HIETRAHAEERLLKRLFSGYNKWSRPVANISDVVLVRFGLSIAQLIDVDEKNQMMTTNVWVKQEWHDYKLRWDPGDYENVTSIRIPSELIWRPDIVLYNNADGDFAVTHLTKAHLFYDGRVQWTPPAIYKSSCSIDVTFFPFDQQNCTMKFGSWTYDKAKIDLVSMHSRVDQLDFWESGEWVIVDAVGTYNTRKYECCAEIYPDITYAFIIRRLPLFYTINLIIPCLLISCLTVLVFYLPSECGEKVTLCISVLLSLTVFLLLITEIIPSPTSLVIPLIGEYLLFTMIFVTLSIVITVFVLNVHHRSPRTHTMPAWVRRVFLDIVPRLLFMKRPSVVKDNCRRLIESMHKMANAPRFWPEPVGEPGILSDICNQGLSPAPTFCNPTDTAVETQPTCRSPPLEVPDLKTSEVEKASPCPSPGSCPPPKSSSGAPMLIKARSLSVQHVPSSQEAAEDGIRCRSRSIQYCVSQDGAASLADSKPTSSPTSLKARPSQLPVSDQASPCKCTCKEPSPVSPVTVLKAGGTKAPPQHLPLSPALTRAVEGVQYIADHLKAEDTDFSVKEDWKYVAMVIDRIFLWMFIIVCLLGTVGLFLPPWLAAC
T1 sequence (P12390 25-500): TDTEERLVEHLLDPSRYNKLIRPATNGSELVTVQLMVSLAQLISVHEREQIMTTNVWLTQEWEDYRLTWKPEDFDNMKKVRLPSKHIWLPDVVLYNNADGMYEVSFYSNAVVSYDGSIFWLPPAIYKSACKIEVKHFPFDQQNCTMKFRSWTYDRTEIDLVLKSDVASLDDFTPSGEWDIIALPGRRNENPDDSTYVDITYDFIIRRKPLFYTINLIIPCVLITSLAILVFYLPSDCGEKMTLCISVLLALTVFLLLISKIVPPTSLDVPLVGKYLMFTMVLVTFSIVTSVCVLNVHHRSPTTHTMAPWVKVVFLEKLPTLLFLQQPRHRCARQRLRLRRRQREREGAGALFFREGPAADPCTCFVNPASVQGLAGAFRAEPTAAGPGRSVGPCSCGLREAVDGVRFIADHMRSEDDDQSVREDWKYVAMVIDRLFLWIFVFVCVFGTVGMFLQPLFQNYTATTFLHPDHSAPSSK

The first series addresses T1, α4β2 nAChR (Rattus norvegicus, UniProt P09483+P12390).
T1 construct: made in house; host or cells: Sf9 insect cells infected with each recombinant baculovirus stock; membrane preparation
Briefly: Inhibition of [3H](-)-nicotine binding to recombinant α4β2 nAChR.
Conditions: not given
Here is the method:
Representative compounds of the invention were investigated by way of the experimental protocol described below.
Production of recombinant α4β2 nAChR:
Recombinant baculovirus stocks containing inserts for the rat α4 and β2 nAChR subunits were independently amplified as described by Wang et al. (1996) J. Neurosci. Res. 44:350-354. Production of the α4β2 nAChR was achieved by infection of Sf9 insect cells with each recombinant viral stock. Cells were harvested 48-72 h post infection by centrifugation for 10 min at 100 g, then washed in a phosphate-bufferedsaline, and homogenized in a small volume of buffer (20 mM Tris-HCl, pH 7.4, 118 mM NaCl, […], 2.5 mM CaCl2, 1.2 mM MgSO4, and 1.0 mM EDTA), followed by centrifugation for 10 min at 300 g. The final step was centrifugation of the supernatant at 37000 g. The membrane pellet was resuspended in buffer and adjusted to 20 mg of total protein per 100 mL. These nAChR preparations were used immediately for binding assays or stored as single experiment aliquots at -80° C.
Reactions were terminated by addition of 3 mL ice-cold 0.9% NaCl followed by rapid vacuum filtration through filtermat B glass fiber filters and two 3-mL washes on the filter. Filters were pre-soaked at least 60 min in 0.1% w/v polyethyleneimine to reduce non-specific binding. […] The concentration of test compounds for 50% inhibition (IC50) was determined by iterative non-linear least-squares regression using the SigmaPlot program (Jandel Scientific Software, San Rafael, Calif.). The data reported are means±standard deviations with four determinations or are individual values for two determinations.
As for `N=C1NCCCN1Cc1ccc(Cl)nc1` [Compound 1, 1-(6-Chloro-3-pyridinyl)methyl-2-iminotetrahydropyrimidine], the IC50 (as a rule, the concentration at which inhibition is half-maximal) amounted to 58 nM.

The series is the same for the next values; noted with them: 1 nM [3H]nicotine, 30 min, 22° C., Sf9 cell membranes; individual values for two determinations; read-out: Inhibition of [3H](-)-nicotine binding to α4β2 nAChR IC50 (individual values for two determinations).
`N=C1NCCCN1Cc1ccc(Cl)nc1` [Compound 1, 1-(6-Chloro-3-pyridinyl)methyl-2-iminotetrahydropyrimidine]: the IC50 is 63 nM. Same read-out and setting: the value for `C[N+](C)(C)Cc1ccc(Cl)nc1` [Compound 10, 1-(6-Chloro-3-pyridinyl)methyl-1,1,1-trimethylammonium chloride] was 16 nM and 20 nM. Still for that read-out and setting: the value for `CC[N+](CC)(CC)Cc1ccc(Cl)nc1` [Compound 11, 1-(6-Chloro-3-pyridinyl)methyl-1,1,1-triethylammonium chloride] was 2400 nM and 3700 nM.

The same series, now with this note: 1 nM [3H]nicotine, 30 min, 22° C., Sf9 cell membranes; means ± standard deviations, four determinations; read-out: Inhibition of [3H](-)-nicotine binding to α4β2 nAChR IC50.
Consider `N=C1NCCCCN1Cc1ccc(Cl)nc1` [Compound 2, 1-[(6-Chloro-3-pyridinyl)methyl]-2-iminotetrahydrodiazepine], for which the 50% inhibitory concentration (IC50) stood at 2.8 ± 1 nM. The same measure, in the same setting: the value for `N=C1SCCN1Cc1ccc(Cl)nc1` [Compound 3, 1-(^6 -Chloro-3-pyridinyl)methyl-2-iminothiazolidine] was 2.3 ± 0.3 nM. Still for that read-out and setting: the value for `N=C1SCCCN1Cc1ccc(Cl)nc1` [Compound 4, 1-[(6-Chloro-3-pyridinyl)methyl]-2-iminotetrahydrothiazine] was 14 ± 4 nM; that for `N=C1CCCN1Cc1ccc(Cl)nc1` [Compound 5, 1-(6-Chloro-3-pyridinyl)methyl-2-iminopyrrolidine] was 3.5 ± 0.7 nM. For `N=C1CCCCN1Cc1ccc(Cl)nc1` [Compound 6, 1-[(6-Chloro-3-pyridinyl)methyl]-2-iminopiperidine], the 50% inhibitory concentration (IC50) came to 11 ± 5 nM. In the case of `N=C1OCCN1Cc1ccc(Cl)nc1` [Compound 7, 1-[(6-Chloro-3-pyridinyl)methyl]-2-imino-1,3-oxazolidine], the concentration for half-maximal inhibition (IC50) was found to be 7.2 ± 2 nM. Same read-out and setting: the value for `N=c1[nH]ccn1Cc1ccc(Cl)nc1` [Compound 8, 1-[(6-Chloro-3-pyridinyl)methyl]-2-iminoimidazole] was 23 ± 9 nM; that for `N=c1sccn1Cc1ccc(Cl)nc1` [Compound 9, 1-(6-Chloro-3-pyridinyl)methyl-2-iminothiazole] was 0.91 ± 0.4 nM.

As to `Clc1ccc(CN2CCC2)cn1` [Compound 12, 1-(6-Chloro-3-pyridinyl)methylazetidine], the IC50 amounted to 16 ± 14 nM. On the same count and under the same terms, the value for `Clc1ccc(CN2CCCC2)cn1` [Compound 13, 1-(^6 -Chloro-3-pyridinyl)methylpyrrolidine] was 8.8 ± 2.8 nM; that for `Clc1ccc(CN2CCCCC2)cn1` [Compound 14, 1-(^6 -Chloro-3-pyridinyl)methylpiperidine] was 14 ± 3 nM.

The subject of another series is humans.
Experiment: not given
As to conditions: administered into the human blood stream, even in relatively small amounts; cited from earlier work.
For `CN1CCC[C@H]1c1cccnc1` [nicotine], the “central and peripheral effects of nicotine” value is “fever, increased heart rate, trembling, nausea, increased blood pressure and convulsions”.

A further series deals with humans.
Experiment: not given
As to conditions: taken orally; cited from earlier work.
Consider `CN1CCC[C@H]1c1cccnc1` [nicotine], for which the fatal oral dose is 250 to 350 mg.

A further series deals with insect versus the mammalian nAChR.
Experiment: not given
As to conditions: Kagabu et al. (1997); Chao et al. (1997); cited from earlier work.
For the compound `N=C1NCCN1Cc1ccc(Cl)nc1` [1-[(6-chloro-3-pyridinyl)methyl]-2-imidazolidine], the “selectivity insect versus mammalian nAChR” value is reported as “selective for the mammalian versus the insect nAChR”. As for `O=[N+]([O-])NC1=NCCN1Cc1ccc(Cl)nc1` [imidacloprid], the “selectivity insect versus mammalian nAChR” value is given as “acts selectively at the insect versus the mammalian nAChR”.

Source of the values: US6303638A, “Substituted pyridines as modulators of the mammalian neuronal nicotinic acetylcholine receptor” (The Regents of the University of California, priority 1999, dated 2001).
